melting point [°C]	SMILES
157 to 158	CC1CCC(c2ccc(Cl)c(C(F)(F)F)c2)=NN1S(=O)(=O)c1ccc(I)cc1 (stereo unspecified)
242 to 243	CC(C)NC1=NS(=O)(=O)c2c(cnn2C)N1
131 to 133	CCOC(=O)/C=C/c1ccc(O)cc1OCc1ccccc1
175 to 178	CC(C)(C)c1nc(-c2ccc3c(c2)OCO3)[nH]c1C(C)(C)C
129 to 130	CC(C)(C)OC(=O)NN(Cc1cc(F)cc(F)c1)C(N)=O
202 to 203	Cc1cc(NS(=O)(=O)c2cccs2)c2[nH]c(C3=NCCS3)cc2c1
82.5 to 84	COC(=O)c1nc(N2CCCC2)ccc1O
151 to 152	CC(CCCC(C)(C)O)C1CCC2C3=CC=C4CCCC(O)C4(C)C3CCC21C (stereo unspecified)
166	COC(=O)CN(N)CC(=O)OC
83 to 85	COc1ccc(C2=CC(=O)CCC2)cc1
201 to 202	Cc1cn([C@@H]2C[C@H](O)[C@@H](O)[C@H]2O)c(=O)[nH]c1=O (racemic)
140	Cc1cc(C)cc(N(CCO)Cc2ccc3nc(NCCCN4CCOCC4)n(Cc4nc(C)c(C)nc4C)c3c2)c1
240 to 241	O=C(O)CCC(=O)Nc1cccc(-c2ccnc3c(C(=O)c4cccs4)cnn23)c1
98 to 104	COCCCn1nnnc1-c1cc(-c2ccc(C(F)(F)F)cc2)c(O)cc1O
128	CC1=NN(C)C(=O)C1=Cc1ccc(Cl)cc1Cl
204	Cc1cccc2c1nc(-c1ccccc1[N+](=O)[O-])n2CC(O)C(C)(C)C (stereo unspecified)
113 to 115	CC(C)NC(=O)CCCCc1cc(O)c(O)c([N+](=O)[O-])c1
70	c1ccc(C2CN3CCN=C3S2)nc1 (stereo unspecified)
167 to 168	COc1ccc(C)cc1NC(=O)Nc1ccc(N2CCN(C(=O)OC(C)(C)C)C(C)C2)cc1 (stereo unspecified)
174	CNC(=O)c1cccc(NC(=O)COc2ccc3ccccc3c2)c1
90 to 95	O=C(O)CCCn1nnnc1S
196	NC(=O)C(Nc1ccccc1C(=O)C1CC1)c1c(Cl)cccc1Cl (stereo unspecified)
157 to 158	CC(C)(C)n1cc(-c2ccc(Oc3ccccc3)cc2)c2c(N)ncnc21
153 to 156	CNC(=O)COC[C@@H]1CC(c2ccc(-c3ccc(N4C[C@H](Cn5ccnn5)OC4=O)cc3F)cn2)=NO1

melting point [°C]	SMILES
55 to 58	O=C(O)C1Cc2ccccc2CN1C(=O)CCS (stereo unspecified)
132	COCC(=O)N[C@H]1CC[C@H](CCN2CCN(c3nccc4ccoc34)CC2)CC1
195 to 196	CNCCCc1cc(C(=O)Nc2ccc(-c3ccc(C(C)=O)cc3)cc2)ccc1OC
201 to 203	COC(=O)c1ccc(Cn2c(=O)c3cc(C(=O)NCc4ccc(OC)cc4)sc3n(C)c2=O)cc1OC
232 to 237	Nc1ccccc1NC(=O)c1ccc(NC(=O)Cc2ccccc2)cc1
275 to 280	CN=C1C2=C(C=CC1CN(C)c1ccc(C(=O)OC)cc1)C(C)(C)CCC2(C)C (stereo unspecified)
136 to 138	CN(C)C(=O)NCC(C)(C)c1ccc2nc(-c3ccncc3)[nH]c2c1
345 to 347	Cn1nc(-c2cnc3[nH]cc(C(=O)NC4CCOC4)c3n2)c2ccc(Cl)cc21 (stereo unspecified)
116 to 117	COc1ccc(CCNc2cc(-n3cccn3)nc(-c3cccs3)n2)cc1OC
195 to 196	Cc1ccc(S(=O)(=O)NN=C2C(=O)Nc3cccc(Cl)c32)cc1
67 to 68	CCCc1nc2cc(CC(=O)O)ccc2o1
246 to 250	COc1cc(/C=C/C(=O)Oc2ccc(NC(C)=O)cc2)ccc1OC(C)=O
190	CC(C)(C)OC(=O)N1C[C@H]2[C@@H](C1)C(c1ccccc1)(c1ccccc1)CC[C@@H]2O
82 to 85	COc1cc(OC)c(C2CCN(C)C2CO)c(OC)c1 (stereo unspecified)
186 to 188	CCCCc1nc2cccc(O)c2n1Cc1ccc(-c2ccccc2-c2nnn[nH]2)cc1
126 to 128	CC(CCc1ccc(Cl)cc1)(Cn1ccnc1)Sc1cccc(Cl)c1Cl (stereo unspecified)
290	COc1ccccc1Sc1c(O)nc(C)[nH]c1=O
226 to 227	COc1ccc2[nH]c(-c3cc4cccnc4n3S(=O)(=O)c3ccc(C)cc3)cc2c1
212	NC(CF)(Cc1cc(O)ccc1O)C(=O)O (stereo unspecified)
58 to 60	N#CCNC(=O)C(Cl)=C(Cl)Cl
160	O=C1N(c2cc(Cl)cc(Cl)c2)C(=O)C2(Cc3ccc(Br)cc3)CC(F)(F)CN12 (stereo unspecified)
165 to 168	Cc1nc(-c2cc(Cl)ccc2Cl)n2c1nnc1ccc(F)cc12
80 to 82	CN1C(=O)C(c2cccc(Br)c2)(c2cnn(CC(F)(F)F)c2)N=C1N (stereo unspecified)
61 to 62	N#Cc1ccc(CCCCCC(=O)O)cc1

melting point [°C]	SMILES
205	CC(C)c1noc(-c2ccccc2)c1-c1ccc(S(N)(=O)=O)cc1
90 to 93	CCOC(=O)c1cc(N(C)S(C)(=O)=O)c(C)nc1C(=O)OCC
60	C=Cc1cc(OCOCCOC)c(OCOCCOC)c(Cl)c1Cl
135 to 136	CC(C)c1cn2ccccc2c1S(=O)(=O)c1ccc(OCCCN2CCN(c3ccccc3)CC2)cc1
97 to 99	CCCCCCCCCCCCCCCCCCNC(=O)OCC(CNS(=O)(=O)CCCI)OC(=O)NC (stereo unspecified)
166 to 168	COc1nc(C)cnc1NS(=O)(=O)c1cccnc1-c1ccc(CCC(=O)O)cc1
217 to 220	O=C(c1ccccc1)N1CCN(c2ccccc2)CCn2c1nc1ccccc12
166	Oc1nc(Cl)n(CCOc2ccccc2)n1
277 to 278	O=C1NC(=O)c2ccccc2/C1=C/Nc1ccc2ncccc2c1
101 to 103	CCOC(=O)N1CCN(c2ccncc2[N+](=O)[O-])CC1
69	CCOCCOc1cc(C)c(-c2cccc(COc3ccc(C=CC(=O)OC)cc3)c2)c(C)c1
102 to 104	CN(CCN1CCN(Cc2ccc(C(F)(F)F)cc2)CC1)C[C@@]1(C)Cn2cc([N+](=O)[O-])nc2O1
176	CP(C)(=O)COC(=O)c1ccccc1Nc1ccnc2c(C(F)(F)F)cccc12
270 to 272	Cc1cc(=O)[nH]nc1-c1ccc2c(c1)CCC1(CCN(C3CCC3)CC1)O2
112	Cc1ccc(C2CCCN2S(=O)(=O)c2ccc(F)cc2)cc1 (racemic)
83 to 85	COc1ccc(C2(O)CCSCC2)cc1OC1CCCC1
67 to 69	CC(Oc1cccc(Cl)c1)C(=O)NCCO[N+](=O)[O-] (stereo unspecified)
69 to 71	O=[N+]([O-])c1cccc(Cl)c1NCc1ccccc1Cl
265 to 268	COc1ccc(C(=O)Nc2ccc(C(=O)Nc3ccccc3)cc2)cc1C12CC3CC(CC(C3)C1)C2
96 to 98	Cc1cc(C[C@H](N)[C@H](O)c2ccc(F)cc2)cc(OC(F)(F)C(F)F)c1 (racemic)
213	Cc1c(C(=O)Nc2ccc(N3CCN(CCCO)CC3)c(C#N)c2)cnn1-c1ccc(Cl)cc1
203 to 206	N#Cc1ccc(NCCc2[nH]c3c(cnc4cc(Cl)ccc43)c2C=O)cc1
68 to 78	CC(C(C#N)C(=O)O)C(C)(C)C (stereo unspecified)
143 to 148	COc1ccccc1Oc1c(NS(=O)(=O)c2ccc(C(C)(C)C)cc2)ncnc1OCCO

melting point [°C]	SMILES
168 to 170	CC12CCC3c4ccc(O)cc4CCC3(C)C1CCC2O (stereo unspecified)
134 to 136	CCCN1CCC(C(=O)Nc2ccc(CN(C)C3CCOCC3)cc2)=Cc2cc(Br)ccc21
90 to 91	CC(C)(C)OC(=O)Nc1ccc2ccccc2c1Br
118	NC(=O)COC(=O)c1ccccc1
190 to 191	COc1ccc(Cc2nc3n(c2Cc2ccc(OC)cc2)CCS3=O)cc1 (stereo unspecified)
126 to 128	CCOC(=O)C(C#N)c1cn(C(=O)OCC)c2cc(Cl)ccc12 (stereo unspecified)
77 to 79	c1ccc2c(c1)CSCCCN2
150	O=S1(=O)c2cccc3cccc(c23)N1CCN1CCC(Cc2cnc3ccccc3c2)CC1
> 240	Cn1c(C(F)(F)F)cc(=O)n(-c2ccc3snc(COCC(=O)NS(C)(=O)=O)c3c2)c1=O
117 to 122	Cc1cc(-c2nc(-c3c(F)cccc3Cl)nn2C)ccc1-c1ccc(OC(F)(F)F)cc1
117 to 119	Cc1ccc(S(=O)(=O)N(Cc2cc(C(C)(C)C)c(O)c(C(C)(C)C)c2)c2cccnc2Cl)cc1
302 to 304	CC(=O)OCC1OC(n2c3ncccc3c3c4c(c5c6ccccc6[nH]c5c32)C(=O)N(C)C4=O)C(OC(C)=O)C(OC(C)=O)C1OC(C)=O (stereo unspecified)
124 to 126	COc1ccc(CS(=O)C(C)(C)C)cc1 (stereo unspecified)
168	COc1ccc(-c2ccc3c(c2)CCC3=O)c2c1OCCO2
122 to 124	Cc1[nH]c2ccc(CCN(C)C3CCCCC3)cc2c1C(=O)OCc1ccccc1
125 to 127	N#CC=CNCC(=O)c1cccc(Cl)c1Cl
209 to 213	Cc1cccc(C)c1/N=C1\SCC(=O)N1/N=C/c1ccc(-c2ncn(-c3ccc(OC(F)(F)F)cc3)n2)cc1
136 to 138	CCCc1c2c(c(O)c3c(=O)cc(C(=O)OCC)oc13)CCCC2
129 to 130	CCOC(=O)c1[nH]cc2c1C1C=CC2CC1 (stereo unspecified)
114	CC1OC(=O)N(Cc2ccccc2[N+](=O)[O-])C1=O (stereo unspecified)
132 to 140	CC(CSC(=O)c1ccco1)C(=O)N1CCCC1C(=O)O (mixture of isomers)
228	O=C(c1ccccc1)c1cnc2cnccc2c1O
103	OC(Cn1cncn1)(c1ccc(F)cc1F)C1(SC(F)(F)F)CC1 (stereo unspecified)

SMILES	melting point [°C]
CN(C)CC(=O)Nc1cccc(NC(=O)Nc2ccc(N(CCCl)CCCl)cc2)c1	62 to 64
O=C1c2cc(Cl)ccc2CN2CCC(=NO)C12 (stereo unspecified)	130 to 136
O=[N+]([O-])C=Cc1cc(Br)ccc1O	165 to 167
c1ccc2c(c1)cnn2N1CCNCC1	153
CC1=Nc2ccccc2CC(c2cccnc2)N1C (stereo unspecified)	145 to 148
CC(C)(C)NC(=O)c1nn(-c2ccc(F)cc2Cl)c2c1C1CCC2C1 (stereo unspecified)	122 to 124

Source: a melting point compilation (Tetko et al.; mined from patent text by program, amines drawn as free bases though some values may be those of a salt)
